Data on 3 molecules can be found in PMC3369218 (Biochemistry, 2012).

By Kd is commonly meant the constant that tells how readily two partners part at equilibrium.

One series has as its target WT DaCld (Dechloromonas aromatica, UniProt Q47CX0). The experiment in a line: Equilibrium binding of ligands, spectrophotometric titration, WT DaCld.
In another series the target is DaCld(R183K) (Dechloromonas aromatica, UniProt Q47CX0, R217K). Description: biochemical. In kind it is binding.
The next series has as its target DaCld(R183Q) (Dechloromonas aromatica, UniProt Q47CX0, R217Q). Description: biochemical. In kind it is binding.
The next series has as its target DaCld(R183A) (Dechloromonas aromatica, UniProt Q47CX0, R217A). The experiment in a line: biochemical. In kind it is binding.
For series [1] the following is noted: cited from earlier work.

Where two headings read alike, the source gives them in different places.

DaCld(R183A), sequence (Q47CX0 35-282 R217A): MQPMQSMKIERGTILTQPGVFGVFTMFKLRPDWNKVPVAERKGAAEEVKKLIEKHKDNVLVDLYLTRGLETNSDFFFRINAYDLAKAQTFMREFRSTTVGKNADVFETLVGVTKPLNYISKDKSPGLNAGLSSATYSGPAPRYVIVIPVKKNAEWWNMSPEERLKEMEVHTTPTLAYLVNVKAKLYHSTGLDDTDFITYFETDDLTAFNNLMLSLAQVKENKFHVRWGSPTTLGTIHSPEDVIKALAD
DaCld(R183Q), sequence (Q47CX0 35-282 R217Q): as the sequence (Q47CX0 35-282 R217A) above, with A183Q counted along it
WT DaCld, sequence (Q47CX0 32-282): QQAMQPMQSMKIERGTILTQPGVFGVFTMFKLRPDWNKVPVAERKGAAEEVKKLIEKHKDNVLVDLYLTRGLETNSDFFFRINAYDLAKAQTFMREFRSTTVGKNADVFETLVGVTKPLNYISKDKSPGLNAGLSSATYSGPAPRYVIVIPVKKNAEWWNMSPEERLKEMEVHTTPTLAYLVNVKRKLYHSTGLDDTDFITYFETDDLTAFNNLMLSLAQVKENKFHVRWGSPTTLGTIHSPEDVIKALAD
DaCld(R183K), sequence (Q47CX0 35-282 R217K): as the sequence (Q47CX0 35-282 R217A) above, with A183K counted along it

In the case of `[N-]=[N+]=[N-]` [N3^–, azide], the Kd on WT DaCld (read-out: Maximal KD, pH 7) amounted to 8.3 ± 0.1 µM.
Consider `c1c[nH]cn1` [imidazole], for which the Kd at WT DaCld was 9.6 ± 0.3 µM; on DaCld(R183K) it was 18 ± 1 µM; on DaCld(R183Q), 27 ± 1 µM; on DaCld(R183A), 21 ± 1 µM. The “pKa1 of pKD versus pH curve” value at DaCld(R183Q) is on record as 6.7 ± 0.1; at DaCld(R183A) it was 6.8 ± 0.1.
Regarding Myoglobin, the reduction potential in series [1] is given as 46 mV.
